In paper PMC6895141, “Antimicrobial Efficacy of Indolicidin Against Multi-Drug Resistant Enteroaggregative Escherichia coli in a Galleria mellonella Model” (Frontiers in Microbiology, 2019):
In brackets after ≈: the same amount, converted by molar mass.

Tests used:
[1] = tested on: MDR-EAEC isolate KY941938.1 (MDR 3); test: In vitro antibiotic susceptibility testing; format: cell-based, enteroaggregative Escherichia coli; design: key to Antibiotic Susceptibility testing / MIC Values, class symbol: S – Sensitive; R- Resistant; details: for Antibiotic Susceptibility testing: CLSI 2018; for MIC: numeric cells; for MIC Values, class symbol: cells printed as S
Source text: (§1) The typical EAEC strains, isolated from the fecal samples of human infants with GenBank accession numbers, KY941936.1 (MDR 1); KY941937.1 (MDR 2); and KY941938.1 (MDR 3), available at Division of Veterinary Public Health, Indian Veterinary Research Institute, Bareilly were re-validated as described earlier ([Vijay et al., 2015]) and tested for antibiotic susceptibility ([Clinical and Laboratory Standards Institute [CLSI], 2018]). E. coli ATCC 25922 used as quality control strain was provided by the Department of Veterinary Public Health, College of Veterinary and Animal Sciences, Pookode, India. These bacterial strains were grown on nutrient agar medium at 37°C.

[2] = tested on: MDR-EAEC isolate KY941936.1 (MDR 1); test: In vitro antibiotic susceptibility testing; format: cell-based, enteroaggregative Escherichia coli; design: key to Antibiotic Susceptibility testing / MIC Values, class symbol: S – Sensitive; R- Resistant; details: for Antibiotic Susceptibility testing: CLSI 2018; for MIC: numeric cells; for MIC Values, class symbol: cells printed as S
Source text: as §1

[3] = tested on: MDR-EAEC isolate KY941937.1 (MDR 2); test: In vitro antibiotic susceptibility testing; format: cell-based, enteroaggregative Escherichia coli; design: key to Antibiotic Susceptibility testing / MIC Values, class symbol: S – Sensitive; R- Resistant; details: for Antibiotic Susceptibility testing: CLSI 2018; for MIC: numeric cells; for MIC Values, class symbol: cells printed as S
Source text: as §1

MDR-EAEC strains = test: Survival of MDR-EAEC infected G. mellonella larvae; format: in vivo, Galleria mellonella; details: larvae infected with LD50 dose (10^6 CFU) MDR-EAEC cocktail, treated 3 h pi with MIC dose (10 μL); upto 120 h pi; n = 40 larvae per group
Procedure: In vivo assays were performed using the final instar of G. mellonella larvae that were stored in wood shavings at 15°C in the dark prior to the experiment ([Morgan et al., 2014]). The larvae were kept in a germ-free environment and were provided with ad libitum food during the course of experiment. Initially, LD50 dose of each MDR-EAEC strains was determined in G. mellonella larvae, and the validated LD50 dose was used further in the in vivo studies to evaluate the antibacterial effect of Indolicidin (Supplementary File S9) by injection with a Hamilton syringe (26 gage) via the last right pro-leg.
(§2) Galleria mellonella larvae (n = 40 larvae per group) were grouped as follows: Group I (infected group), Groups II and III (infection + treatment groups), Group IV (PBS control), and Group V (AMP control). Larvae from groups I to III were infected with cocktail of MDR-EAEC strains (LD50 dose; 10 μL); groups II and III were administered 3 h post-infection (pi) with MIC dose (10 μL) of Indolicidin and Meropenem, respectively; Group IV were injected with sterile PBS whereas, group V was administered with MIC dose of Indolicidin.

MDR-EAEC isolates = test: In vitro dose- and time-dependent killing kinetics; format: cell-based, enteroaggregative Escherichia coli; details: Meropenem 10 μg/ml
Procedure: The in vitro growth kinetics of MDR-EAEC isolates was evaluated by incubating the log-phase bacterial cultures of each MDR-EAEC isolate (ca. 1 × 10^7 CFU/mL) in CA-MH broth with MIC (1X and 2X) concentrations of Indolicidin, in triplicates (Supplementary File S8). The desired bacterial numbers for each MDR-EAEC isolate and Indolicidin were suspended in CA-MH broth as follows: Group I, 10^7 CFU of MDR-EAEC (50 μL) with 1X MIC Indolicidin (50 μL); Group II, 10^7 CFU of MDR- EAEC (50 μL) with MBC Indolicidin (50 μL); Group III, 10^7 CFU of MDR- EAEC (50 μL) with Meropenem (10 μg/ml; 50 μL); Group IV, 10^7 CFU of MDR- EAEC (50 μL) with CA-MH broth (50 μL) and Group V, 10^7 CFU of MDR- EAEC (50 μL) with 4X MIC Indolicidin (50 μL). To enumerate the antibacterial effect of Indolicidin on MDR-EAEC isolates, an aliquot at 10 μL from all the five groups were drawn at 0, 30, 60, 90, 120, 150, 180 min, 24, 48, and 72 h. These aliquots were serially diluted 10-fold in normal saline solution (prepared using 0.90% of sodium chloride, HiMedia Laboratories); the last three dilutions placed on EMB agar plates containing 100 μg of ampicillin ([Miles et al., 1938]) were counted after 24 h of incubation at 37°C, and the bacterial counts were expressed as log10CFU/mL. […]

G. mellonella larvae = test: Melanization assay in G. mellonella larvae; format: in vivo, Galleria mellonella; details: infected larvae treated 3 h pi; absorbance 450 nm of hemolymph, 6 to 96 h pi
Procedure: as §2
For determination of the melanin production, an immune marker, the G. mellonella (n=3 larvae per group) were investigated at an interval of 6 h pi for 24 h, followed by 24 h interval till 96 h. An aliquot of the pooled haemolymph (100 µl) was transferred into 96-well microtiter plate for measuring the optical density (OD) at a wavelength of 450 nm using ELISA plate reader (Thermo Scientific Multiskan GO) with OD values of haemolymph collected from apparently healthy un-inoculated larvae as the background control.

Molecule | Antibiotic Susceptibility testing [1] | MIC ([1]; Escherichia coli) [µM] | Antibiotic Susceptibility testing [2] | Antibiotic Susceptibility testing [3] | MIC ([3]; Escherichia coli) [µM] | MIC Values, class symbol [1] | MIC Values, class symbol [2] | MIC Values, class symbol [3] | further results
CC1(C)S[C@@H]2[C@H](NC(=O)[C@H](N)c3ccccc3)C(=O)N2[C@H]1C(=O)O [AMP, Ampicillin] | R | > 240 | R | R | > 240 |  |  |  | MIC ([2]; Escherichia coli): > 240 µM
O=C(O)c1cn(C2CC2)c2cc(N3CCNCC3)c(F)cc2c1=O [CIP, Ciprofloxacin] |  | 60 (≈ 19.9 µg/mL) |  |  | 120 (≈ 39.8 µg/mL) |  |  |  | 
C[C@@H](O)[C@H]1C(=O)N2C(C(=O)O)=C(SCCN=CN)C[C@H]12 [IMI, Imipenem] | S |  | S | S |  | S | S | S | 
Cc1cc(NS(=O)(=O)c2ccc(N)cc2)no1 [SXT, Sulfamethoxazole] | R |  | R | S |  |  |  |  | 
CN(C)[C@@H]1C(O)=C(C(N)=O)C(=O)[C@@]2(O)C(O)=C3C(=O)c4c(O)cccc4[C@@](C)(O)[C@H]3C[C@@H]12 [TE, Tetracycline] | R | 30 (≈ 13.3 µg/mL) | R | R | 2 (≈ 0.889 µg/mL) |  |  |  | MIC ([2]; Escherichia coli): 60 µM (≈ 26.7 µg/mL)
Colistin sulphate | S |  | S | S |  | S | S | S | 
C[C@@H](O)[C@H]1C(=O)N2C(C(=O)O)=C(S[C@@H]3CN[C@H](C(=O)N(C)C)C3)[C@H](C)[C@H]12 [Meropenem] |  |  |  |  |  |  |  |  | survival rate (MDR-EAEC strains): 85%; time to similar inhibition (complete elimination) in time-kill kinetic assay (MDR-EAEC isolates): 60 min; melanization (G. mellonella larvae): the melanization was lower at 6 h pi, reached its peak at 18 h pi and thereafter gradually declined
O=C(N[C@H](CO)[C@H](O)c1ccc([N+](=O)[O-])cc1)C(Cl)Cl [CL, Chloramphenicol] | S |  | S | S |  | S | S | S | 
CO/N=C(\C(=O)N[C@@H]1C(=O)N2C(C(=O)O)=C(CSc3nc(=O)c(=O)[nH]n3C)CS[C@H]12)c1csc(N)n1 [CTR, Ceftriaxone] | R | > 240 | S | R | > 240 |  | S |  | 
Co-trimoxazole [COT] | R |  | R | R |  |  |  |  | MIC [1]: >240 µM; MIC [2]: >240 µM; MIC [3]: >240 µM
CNC(C)C1CCC(N)C(OC2C(N)CC(N)C(OC3OCC(C)(O)C(NC)C3O)C2O)O1 (centres unmarked) [GEN, Gentamicin] | S |  | S | S |  | S | S | S | 
